Reference: PubChem BioAssay AID256 (DTP/NCI, 2004)
Values joined by “and” are separate entries in the source; they are usually repeats but may differ in a detail not shown here. Equal values may be shown once. Toxic doses and inconclusive results are not listed. The calls were made as follows: active = survival T/C of 150% or more; inactive = T/C below 125% in these data.

Test system: CD2F1 mice, L1210 leukemia ip, survival T/C
Assay: NCI In Vivo Anticancer Drug Screen. Data for tumor model L1210 Leukemia (intraperitoneal) in CD2F1 (CDF1) mice
Conditions: higher = longer survival
In short: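 Activity against a transplanted murine tumor was judged by comparing the compound group with a vehicle group. The outcome in the treated animals was divided by that in the controls.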

[1] = endpoint: mean survival time, dose: 100.0 mg/kg/injection, schedule: Q04DX003 (ip), vehicle: saline with Tween-80
[2] = endpoint: mean survival time, dose: 200.0 mg/kg/injection, schedule: Q04DX003 (ip), vehicle: saline with Tween-80
[3] = endpoint: mean survival time, dose: 400.0 mg/kg/injection, schedule: Q04DX003 (ip), vehicle: saline with Tween-80
[4] = endpoint: mean survival time, dose: 100.0 mg/kg/injection, schedule: Q04DX002 (ip), vehicle: saline with Tween-80
[5] = endpoint: mean survival time, dose: 200.0 mg/kg/injection, schedule: Q04DX002 (ip), vehicle: saline with Tween-80
[6] = endpoint: mean survival time, dose: 400.0 mg/kg/injection, schedule: Q04DX002 (ip), vehicle: saline with Tween-80
[7] = endpoint: mean survival time, dose: 12.5 mg/kg/injection, schedule: Q01DX009 (ip), vehicle: saline
[8] = endpoint: mean survival time, dose: 25.0 mg/kg/injection, schedule: Q01DX009 (ip), vehicle: saline
[9] = endpoint: mean survival time, dose: 100.0 mg/kg/injection, schedule: Q01DX009 (ip), vehicle: saline
[10] = endpoint: mean survival time, dose: 200.0 mg/kg/injection, schedule: Q01DX009 (ip), vehicle: saline
[11] = endpoint: mean survival time, dose: 200.0 mg/kg/injection, schedule: Q01DX009 (ip), vehicle: saline with Tween-80

Measured: T/C

NC(=O)c1ncnnc1N
inactive: endpoint: mean survival time, dose: 100.0 mg/kg/injection, schedule: Q01DX001 (ip), vehicle: carboxymethylcellulose (CMC) 93 % of control | endpoint: mean survival time, dose: 200.0 mg/kg/injection, schedule: Q01DX001 (ip), vehicle: carboxymethylcellulose (CMC) 102 % of control | endpoint: mean survival time, dose: 400.0 mg/kg/injection, schedule: Q01DX001 (ip), vehicle: carboxymethylcellulose (CMC) 102 % of control

ClC(Cl)(Cl)C1CCC(Br)C2CCCCC21 (stereo not given)
inactive: [1] 92 % of control | [2] 100 % of control | [3] 96 % of control

O=C1CCCCCCCCCCC1Sc1ccccc1 (stereo not given)
inactive: [1] 91 % of control | [2] 100 % of control | [3] 91 % of control

C1CCC2C[N-]CCC2C1.C1CCC2C[N-]CCC2C1.C1CCC2C[N-]CCC2C1.C1CCC2C[N-]CCC2C1.[Cl][Rh][Cl] (stereo not given)
inactive: endpoint: mean survival time, dose: 0.25 mg/kg/injection, schedule: Q01DX009 (ip), vehicle: saline 98 % of control | endpoint: mean survival time, dose: 0.5 mg/kg/injection, schedule: Q01DX009 (ip), vehicle: saline with Tween-80 92 % of control | endpoint: mean survival time, dose: 0.5 mg/kg/injection, schedule: Q01DX009 (ip), vehicle: saline 104 % of control | endpoint: mean survival time, dose: 1.0 mg/kg/injection, schedule: Q01DX009 (ip), vehicle: saline with Tween-80 96 % of control | endpoint: mean survival time, dose: 1.0 mg/kg/injection, schedule: Q01DX009 (ip), vehicle: saline 104 % of control | endpoint: mean survival time, dose: 2.0 mg/kg/injection, schedule: Q01DX009 (ip), vehicle: saline with Tween-80 96 % of control | endpoint: mean survival time, dose: 2.0 mg/kg/injection, schedule: Q01DX009 (ip), vehicle: saline 105 % of control | endpoint: mean survival time, dose: 4.0 mg/kg/injection, schedule: Q01DX009 (ip), vehicle: saline 113 % of control | endpoint: mean survival time, dose: 8.0 mg/kg/injection, schedule: Q01DX009 (ip), vehicle: saline 115 % of control

CN(C)c1ccc(/C=C2\C=Nc3ccccc32)cc1
inactive: endpoint: mean survival time, dose: 25.0 mg/kg/injection, schedule: Q04DX003 (ip), vehicle: saline with Tween-80 87 % of control | [1] 87 % of control

C=CCOc1ccc(Cl)cc1
inactive: endpoint: mean survival time, dose: 100.0 mg/kg/injection, schedule: Q01DX001 (ip), vehicle: Klucel (hydroxypropylcellulose) (HPC) 108 % of control | endpoint: mean survival time, dose: 200.0 mg/kg/injection, schedule: Q01DX001 (ip), vehicle: Klucel (hydroxypropylcellulose) (HPC) 92 % of control | endpoint: mean survival time, dose: 400.0 mg/kg/injection, schedule: Q01DX001 (ip), vehicle: Klucel (hydroxypropylcellulose) (HPC) 100 % of control

O=C(OCC1OCOC(COC(=O)c2ccccc2)C(OC(=O)c2ccccc2)C1OC(=O)c1ccccc1)c1ccccc1 (stereo not given)
inactive: [4] 100 % of control | [5] 88 % of control | [6] 88 % of control

CNc1nc(N(C)C)nc(N(C)C)n1
inactive: endpoint: mean survival time, dose: 6.25 mg/kg/injection, schedule: Q01DX009 (ip), vehicle: saline 97 % of control | endpoint: mean survival time, dose: 6.25 mg/kg/injection, schedule: Q01DX009 (ip), vehicle: water 107 % of control | [7] 97 % of control | endpoint: mean survival time, dose: 12.5 mg/kg/injection, schedule: Q01DX009 (ip), vehicle: water 104 % of control | [8] 100 % of control | endpoint: mean survival time, dose: 25.0 mg/kg/injection, schedule: Q01DX009 (ip), vehicle: water 104 % of control | endpoint: mean survival time, dose: 50.0 mg/kg/injection, schedule: Q01DX009 (ip), vehicle: saline 101 % of control | endpoint: mean survival time, dose: 50.0 mg/kg/injection, schedule: Q01DX009 (ip), vehicle: water 110 % of control | [9] 111 % of control | endpoint: mean survival time, dose: 100.0 mg/kg/injection, schedule: Q01DX009 (ip), vehicle: water 119 % of control

CC1CC(C)CC(C)C(O)/C(C#N)=C/C=C/CC(C2CCCC2C(=O)O)OC(=O)CC(O)C(C)C1 (stereo not given)
inactive: endpoint: mean survival time, dose: 1.56 mg/kg/injection, schedule: Q01DX009 (ip), vehicle: Klucel (hydroxypropylcellulose) (HPC) 105 % of control | endpoint: mean survival time, dose: 3.13 mg/kg/injection, schedule: Q01DX009 (ip), vehicle: Klucel (hydroxypropylcellulose) (HPC) 109 % of control | endpoint: mean survival time, dose: 6.25 mg/kg/injection, schedule: Q01DX009 (ip), vehicle: Klucel (hydroxypropylcellulose) (HPC) 89 % of control and 96 % of control

C#CC(=O)c1ccccc1
inactive: endpoint: mean survival time, dose: 9.4 mg/kg/injection, schedule: Q04DX003 (ip), vehicle: saline 93 % of control

O=P(CCCCl)(OCCCCl)OCCCCl
inactive: [9] 100 % of control | [10] 101 % of control | endpoint: mean survival time, dose: 400.0 mg/kg/injection, schedule: Q01DX009 (ip), vehicle: saline 100 % of control

CCOC/C(C)=C/Cl
inactive: endpoint: mean survival time, dose: 100.0 mg/kg/injection, schedule: Q01DX009 (ip), vehicle: acetone 106 % of control | endpoint: mean survival time, dose: 200.0 mg/kg/injection, schedule: Q01DX009 (ip), vehicle: acetone 103 % of control

CCC(=O)Nc1cc([N+](=O)[O-])cc([N+](=O)[O-])c1
inactive: [4] 105 % of control | [5] 100 % of control

Cc1nc2ccccc2c(=O)n1-c1ccccc1Cl
inactive: endpoint: mean survival time, dose: 100.0 mg/kg/injection, schedule: Q01DX009 (ip), vehicle: saline with Tween-80 100 % of control | [1] 100 % of control | [11] 105 % of control | [2] 102 % of control | endpoint: mean survival time, dose: 400.0 mg/kg/injection, schedule: Q01DX009 (ip), vehicle: saline with Tween-80 117 % of control | [3] 112 % of control

[Cl][Pt+2][Cl].[NH-]C1CCCC1.[NH-]C1CCCC1
inactive: endpoint: mean survival time, dose: 5.0 mg/kg/injection, schedule: Q01DX009 (ip), vehicle: Klucel (hydroxypropylcellulose) (HPC) 103 % of control | endpoint: mean survival time, dose: 10.0 mg/kg/injection, schedule: Q01DX009 (ip), vehicle: Klucel (hydroxypropylcellulose) (HPC) 104 % of control | endpoint: mean survival time, dose: 20.0 mg/kg/injection, schedule: Q01DX009 (ip), vehicle: Klucel (hydroxypropylcellulose) (HPC) 116 % of control and 104 % of control and 108 % of control | endpoint: mean survival time, dose: 20.0 mg/kg/injection, schedule: Q04DX003 (ip), vehicle: Klucel (hydroxypropylcellulose) (HPC) 103 % of control | endpoint: mean survival time, dose: 40.0 mg/kg/injection, schedule: Q01DX001 (ip), vehicle: Klucel (hydroxypropylcellulose) (HPC) 96 % of control | endpoint: mean survival time, dose: 40.0 mg/kg/injection, schedule: Q01DX009 (ip), vehicle: Klucel (hydroxypropylcellulose) (HPC) 115 % of control and 104 % of control | endpoint: mean survival time, dose: 40.0 mg/kg/injection, schedule: Q04DX003 (ip), vehicle: Klucel (hydroxypropylcellulose) (HPC) 103 % of control | endpoint: mean survival time, dose: 80.0 mg/kg/injection, schedule: Q01DX001 (ip), vehicle: Klucel (hydroxypropylcellulose) (HPC) 105 % of control | endpoint: mean survival time, dose: 80.0 mg/kg/injection, schedule: Q01DX009 (ip), vehicle: Klucel (hydroxypropylcellulose) (HPC) 121 % of control and 124 % of control | endpoint: mean survival time, dose: 80.0 mg/kg/injection, schedule: Q04DX003 (ip), vehicle: Klucel (hydroxypropylcellulose) (HPC) 111 % of control | endpoint: mean survival time, dose: 160.0 mg/kg/injection, schedule: Q01DX001 (ip), vehicle: Klucel (hydroxypropylcellulose) (HPC) 102 % of control | endpoint: mean survival time, dose: 160.0 mg/kg/injection, schedule: Q01DX009 (ip), vehicle: Klucel (hydroxypropylcellulose) (HPC) 115 % of control | endpoint: mean survival time, dose: 160.0 mg/kg/injection, schedule: Q04DX003 (ip), vehicle: Klucel (hydroxypropylcellulose) (HPC) 111 % of control | endpoint: mean survival time, dose: 320.0 mg/kg/injection, schedule: Q01DX001 (ip), vehicle: Klucel (hydroxypropylcellulose) (HPC) 106 % of control | endpoint: mean survival time, dose: 320.0 mg/kg/injection, schedule: Q01DX009 (ip), vehicle: Klucel (hydroxypropylcellulose) (HPC) 115 % of control and 103 % of control | endpoint: mean survival time, dose: 320.0 mg/kg/injection, schedule: Q04DX003 (ip), vehicle: Klucel (hydroxypropylcellulose) (HPC) 108 % of control | endpoint: mean survival time, dose: 640.0 mg/kg/injection, schedule: Q01DX001 (ip), vehicle: Klucel (hydroxypropylcellulose) (HPC) 114 % of control

COc1nc(NC2OC(CO)C(O)C(O)C2O)c(I)c(=O)n1C (stereo not given)
inactive: endpoint: median survival time, dose: 12.5 mg/kg/injection, schedule: Q01DX005 (ip), vehicle: saline with Tween-80 100 % of control | endpoint: median survival time, dose: 25.0 mg/kg/injection, schedule: Q01DX005 (ip), vehicle: saline with Tween-80 100 % of control | endpoint: median survival time, dose: 50.0 mg/kg/injection, schedule: Q01DX005 (ip), vehicle: saline with Tween-80 100 % of control | endpoint: median survival time, dose: 100.0 mg/kg/injection, schedule: Q01DX005 (ip), vehicle: saline with Tween-80 100 % of control | endpoint: median survival time, dose: 200.0 mg/kg/injection, schedule: Q01DX005 (ip), vehicle: saline with Tween-80 101 % of control

CCCCCCn1ncc(=O)[nH]c1=O
inactive: [7] 101 % of control and 102 % of control (2×) | [8] 93 % of control and 98 % of control and 101 % of control | [10] 96 % of control

O=C(NNC(=O)c1cccnc1)Nc1cccc(Cl)c1Cl
inactive: endpoint: mean survival time, dose: 50.0 mg/kg/injection, schedule: Q01DX009 (ip), vehicle: saline with Tween-80 94 % of control | [11] 101 % of control

C#CC(C)(C)OC(O)C(Cl)(Cl)Cl (stereo not given)
inactive: [4] 91 % of control | [5] 91 % of control | [6] 106 % of control

CCOC(=O)/C(C#N)=C(\C)c1ccccc1
inactive: endpoint: mean survival time, dose: 37.5 mg/kg/injection, schedule: Q01DX009 (ip), vehicle: saline with Tween-80 95 % of control | endpoint: mean survival time, dose: 75.0 mg/kg/injection, schedule: Q01DX009 (ip), vehicle: saline with Tween-80 97 % of control
